Assay results as given in the supplement of paper PMC10627819.

Assays:
S. aureus Newman = assay: Bliss interaction score (quartile over a dose matrix) (fitness difference); higher = more antagonism (negative = synergy)
Method in brief: (§1)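 The Bliss score subtracts expected fitness, the product of the single-drug fitness values, from observed fitness. Fitness is plate-normalised OD595 at entry into stationary phase, relative to the robust no-drug mean and capped at 1, with single-drug fitness inferred from combinations. Summaries are quartiles over technical, biological and donor/recipient replicates.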

S. pneumoniae D39V [1] = assay: as above
Method in brief: as §1

B. subtilis 168 = assay: as above
Method in brief: as §1

S. aureus DSM 20231 [2] = assay: as above
Method in brief: as §1

S. pneumoniae D39V [3] = assay: fitness (endpoint OD595 vs no drug) (fraction); higher = more growth
Method in brief: (§2)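 Cultures at OD595 0.01 were dispensed into 384-well plates in TSB, LB Lennox or CY and incubated at 37 °C. Every 30 min for 14 h, OD595 was read and corrected by the first reading. Fitness is the optical density at entry into stationary phase relative to the robust mean of no-drug control wells, capped at 1.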

S. aureus DSM 20231 [4] = assay: as above
Method in brief: as §2
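Throughout, for Bliss interaction score (quartile over a dose matrix): first quartile when negative (synergy) and third quartile when positive (antagonism).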

CC1(C)S[C@@H]2[C@H](NC(=O)[C@H](N)c3ccc(O)cc3)C(=O)N2[C@H]1C(=O)O [Amoxicillin] + CC(=O)NC[C@H]1CN(c2ccc(N3CCOCC3)c(F)c2)C(=O)O1 [Linezolid]
Conditions | Bliss interaction score
B. subtilis 168 | -0.0837
S. aureus DSM 20231 [2] | 0.0353
S. aureus Newman | -0.0532
S. pneumoniae D39V [1] | 0.225

Conditions | fitness
S. aureus DSM 20231 [4], first compound 0.0625 µg/mL, partner 0.125 µg/mL | 0.652
S. aureus DSM 20231 [4], first compound 0.0625 µg/mL, partner 0.25 µg/mL | 0.427
S. aureus DSM 20231 [4], first compound 0.0625 µg/mL, partner 0.5 µg/mL | 0.161
S. aureus DSM 20231 [4], first compound 0.125 µg/mL, partner 0.125 µg/mL | 0.368
S. aureus DSM 20231 [4], first compound 0.125 µg/mL, partner 0.25 µg/mL | 0.292
S. aureus DSM 20231 [4], first compound 0.125 µg/mL, partner 0.5 µg/mL | 0.0966
S. aureus DSM 20231 [4], first compound 0.25 µg/mL, partner 0.125 µg/mL | 0.129
S. aureus DSM 20231 [4], first compound 0.25 µg/mL, partner 0.25 µg/mL | 0.0329
S. aureus DSM 20231 [4], first compound 0.25 µg/mL, partner 0.5 µg/mL | 0.0469
S. pneumoniae D39V [3], first compound 0.0008 µg/mL, partner 0.105 µg/mL | 0.877
S. pneumoniae D39V [3], first compound 0.0008 µg/mL, partner 0.21 µg/mL | 0.724
S. pneumoniae D39V [3], first compound 0.0008 µg/mL, partner 0.42 µg/mL | 0.592
S. pneumoniae D39V [3], first compound 0.0015 µg/mL, partner 0.105 µg/mL | 0.84
S. pneumoniae D39V [3], first compound 0.0015 µg/mL, partner 0.2 µg/mL | 0.885
S. pneumoniae D39V [3], first compound 0.0015 µg/mL, partner 0.21 µg/mL | 0.784
S. pneumoniae D39V [3], first compound 0.0015 µg/mL, partner 0.4 µg/mL | 0.523
S. pneumoniae D39V [3], first compound 0.0015 µg/mL, partner 0.42 µg/mL | 0.578
S. pneumoniae D39V [3], first compound 0.0015 µg/mL, partner 0.8 µg/mL | 0.377
S. pneumoniae D39V [3], first compound 0.003 µg/mL, partner 0.105 µg/mL | 0.811
S. pneumoniae D39V [3], first compound 0.003 µg/mL, partner 0.2 µg/mL | 0.832
S. pneumoniae D39V [3], first compound 0.003 µg/mL, partner 0.21 µg/mL | 0.72
S. pneumoniae D39V [3], first compound 0.003 µg/mL, partner 0.4 µg/mL | 0.57
S. pneumoniae D39V [3], first compound 0.003 µg/mL, partner 0.42 µg/mL | 0.507
S. pneumoniae D39V [3], first compound 0.003 µg/mL, partner 0.8 µg/mL | 0.39

one replicate
Conditions | fitness
S. aureus DSM 20231 [4], first compound 0.0625 µg/mL, partner 1 µg/mL | 0.0145
S. aureus DSM 20231 [4], first compound 0.125 µg/mL, partner 1 µg/mL | 0.012
S. aureus DSM 20231 [4], first compound 0.25 µg/mL, partner 1 µg/mL | 0.0104
S. aureus DSM 20231 [4], first compound 0.5 µg/mL, partner 0.125 µg/mL | 0.0313
S. aureus DSM 20231 [4], first compound 0.5 µg/mL, partner 0.25 µg/mL | 0.0362
S. aureus DSM 20231 [4], first compound 0.5 µg/mL, partner 0.5 µg/mL | 0.032
S. pneumoniae D39V [3], first compound 0.0008 µg/mL, partner 0.2 µg/mL | 0.875
S. pneumoniae D39V [3], first compound 0.0008 µg/mL, partner 0.4 µg/mL | 0.648
S. pneumoniae D39V [3], first compound 0.0008 µg/mL, partner 0.8 µg/mL | 0.419
S. pneumoniae D39V [3], first compound 0.006 µg/mL, partner 0.2 µg/mL | 0.532
S. pneumoniae D39V [3], first compound 0.006 µg/mL, partner 0.4 µg/mL | 0.359
S. pneumoniae D39V [3], first compound 0.006 µg/mL, partner 0.8 µg/mL | 0.212

CC1(C)S[C@@H]2[C@H](NC(=O)[C@H](N)c3ccc(O)cc3)C(=O)N2[C@H]1C(=O)O [Amoxicillin] + CCC[C@@H]1C[C@@H](C(=O)N[C@@H]([C@H]2O[C@H](SC)[C@H](O)[C@@H](O)[C@H]2O)[C@@H](C)O)N(C)C1 [Lincomycin]
Conditions | Bliss interaction score
B. subtilis 168 | -0.0381
S. aureus DSM 20231 [2] | -0.0436
S. aureus Newman | 0.117
S. pneumoniae D39V [1] | 0.227

fitness, S. pneumoniae D39V [3], one replicate
Conditions | partner 0.2 µg/mL | partner 0.4 µg/mL | partner 0.8 µg/mL
first compound 0.0008 µg/mL | 0.878 | 0.489 | 0.393
first compound 0.006 µg/mL | 0.484 | 0.216 | 0.143

fitness
Conditions | partner 0.1 µg/mL | partner 0.2 µg/mL | partner 0.215 µg/mL | partner 0.4 µg/mL | partner 0.43 µg/mL | partner 0.8 µg/mL | partner 0.86 µg/mL
S. aureus DSM 20231 [4], first compound 0.0625 µg/mL | 0.624 | 0.492 | – | 0.213 | – | – | –
S. aureus DSM 20231 [4], first compound 0.125 µg/mL | – | 0.358 | – | 0.129 | – | – | –
S. aureus DSM 20231 [4], first compound 0.25 µg/mL | 0.0334 | 0.0486 | – | 0.064 | – | – | –
S. aureus DSM 20231 [4], first compound 0.5 µg/mL | 0.0005 | 0.0261 | – | 0.0105 | – | – | –
S. pneumoniae D39V [3], first compound 0.0008 µg/mL | – | – | 0.838 | – | 0.739 | – | 0.409
S. pneumoniae D39V [3], first compound 0.0015 µg/mL | – | 0.847 | 0.878 | 0.54 | 0.744 | 0.312 | 0.437
S. pneumoniae D39V [3], first compound 0.003 µg/mL | – | 0.816 | 0.852 | 0.554 | 0.744 | 0.337 | 0.477

CC1(C)S[C@@H]2[C@H](NC(=O)[C@H](N)c3ccc(O)cc3)C(=O)N2[C@H]1C(=O)O [Amoxicillin] + COc1cc(Cc2cnc(N)nc2N)cc(OC)c1OC [Trimethoprim]
Conditions | Bliss interaction score
B. subtilis 168 | -0.139
S. aureus DSM 20231 [2] | -0.0714
S. aureus Newman | 0.0661
S. pneumoniae D39V [1] | 0.174

fitness, S. aureus DSM 20231 [4]
Conditions | partner 0.125 µg/mL | partner 0.25 µg/mL | partner 0.5 µg/mL | partner 1 µg/mL
first compound 0.0625 µg/mL | 0.511 | 0.401 | 0.0356 | 0.0213
first compound 0.125 µg/mL | 0.189 | 0.11 | 0.0261 | 0.0335
first compound 0.25 µg/mL | 0.0479 | 0.037 | 0.033 | 0.0125

S. aureus DSM 20231 [4], first compound 0.5 µg/mL, one replicate
Conditions | fitness
partner 0.125 µg/mL | 0.0327
partner 0.25 µg/mL | 0.0355
partner 0.5 µg/mL | 0.0427

CO/N=C(\C(=O)N[C@@H]1C(=O)N2C(C(=O)[O-])=C(C[N+]3(C)CCCC3)CS[C@H]12)c1csc(N)n1 [Cefepime] + CC(=O)NC[C@H]1CN(c2ccc(N3CCOCC3)c(F)c2)C(=O)O1 [Linezolid]
Conditions | Bliss interaction score
B. subtilis 168 | 0.0847
S. aureus DSM 20231 [2] | 0.11
S. aureus Newman | 0.0424
S. pneumoniae D39V [1] | 0.165

Conditions | fitness
S. aureus DSM 20231 [4], first compound 0.125 µg/mL, partner 0.125 µg/mL | 0.843
S. aureus DSM 20231 [4], first compound 0.125 µg/mL, partner 0.25 µg/mL | 0.625
S. aureus DSM 20231 [4], first compound 0.125 µg/mL, partner 0.5 µg/mL | 0.287
S. aureus DSM 20231 [4], first compound 0.25 µg/mL, partner 0.125 µg/mL | 0.956
S. aureus DSM 20231 [4], first compound 0.25 µg/mL, partner 0.25 µg/mL | 0.655
S. aureus DSM 20231 [4], first compound 0.25 µg/mL, partner 0.5 µg/mL | 0.375
S. aureus DSM 20231 [4], first compound 0.5 µg/mL, partner 0.125 µg/mL | 0.903
S. aureus DSM 20231 [4], first compound 0.5 µg/mL, partner 0.25 µg/mL | 0.669
S. aureus DSM 20231 [4], first compound 0.5 µg/mL, partner 0.5 µg/mL | 0.322
S. pneumoniae D39V [3], first compound 0.007 µg/mL, partner 0.2 µg/mL | 0.827
S. pneumoniae D39V [3], first compound 0.007 µg/mL, partner 0.4 µg/mL | 0.567
S. pneumoniae D39V [3], first compound 0.007 µg/mL, partner 0.8 µg/mL | 0.253
S. pneumoniae D39V [3], first compound 0.0078 µg/mL, partner 0.105 µg/mL | 0.934
S. pneumoniae D39V [3], first compound 0.0078 µg/mL, partner 0.21 µg/mL | 0.825
S. pneumoniae D39V [3], first compound 0.0078 µg/mL, partner 0.42 µg/mL | 0.692
S. pneumoniae D39V [3], first compound 0.014 µg/mL, partner 0.2 µg/mL | 0.797
S. pneumoniae D39V [3], first compound 0.014 µg/mL, partner 0.4 µg/mL | 0.573
S. pneumoniae D39V [3], first compound 0.014 µg/mL, partner 0.8 µg/mL | 0.259
S. pneumoniae D39V [3], first compound 0.0155 µg/mL, partner 0.105 µg/mL | 0.912
S. pneumoniae D39V [3], first compound 0.0155 µg/mL, partner 0.21 µg/mL | 0.796
S. pneumoniae D39V [3], first compound 0.0155 µg/mL, partner 0.42 µg/mL | 0.608
S. pneumoniae D39V [3], first compound 0.028 µg/mL, partner 0.2 µg/mL | 0.751
S. pneumoniae D39V [3], first compound 0.028 µg/mL, partner 0.4 µg/mL | 0.512
S. pneumoniae D39V [3], first compound 0.028 µg/mL, partner 0.8 µg/mL | 0.244
S. pneumoniae D39V [3], first compound 0.031 µg/mL, partner 0.105 µg/mL | 0.645
S. pneumoniae D39V [3], first compound 0.031 µg/mL, partner 0.21 µg/mL | 0.504
S. pneumoniae D39V [3], first compound 0.031 µg/mL, partner 0.42 µg/mL | 0.258

S. aureus DSM 20231 [4], partner 1 µg/mL, one replicate
Conditions | fitness
first compound 0.125 µg/mL | 0.0467
first compound 0.25 µg/mL | 0.0593
first compound 0.5 µg/mL | 0.052
